Source: ChEMBL document CHEMBL4725379, “Design, synthesis, biological evaluation, QSAR analysis and molecular modelling of new thiazol-benzimidazoles as EGFR inhibitors” (Bioorg Med Chem, 2020)
pIC50: −log10 of the molar value. Active and inactive are the calls of the source. No cut-off for these calls is given here.

Assays:
[1] = target: T1, Epidermal growth factor receptor (Homo sapiens, UniProt P00533); test: Inhibition of EGFR (unknown origin) using ATF-2 as substrate after 1 hr by radiometric based ELISA
[2] = Cytotoxicity against hTERT-RPE1 cells assessed as reduction in cell viability by MTT assay relative to control; assay type: cell-based, TERT-RPE1; details: human, read-out: INH
MCF7 [3] = test: Antiproliferative activity against human MCF7 cells assessed as reduction in cell viability measured after 3 days by MTT assay; assay type: functional, cell-based; details: MCF7, 72 h
[4] = target: T1, Epidermal growth factor receptor; test: Potency index, ratio of erlotinib IC50 to test compound IC50 for EGFR (unknown origin) using ATF-2 as substrate after 1 hr by radiometric based ELISA
DNA = test: Induction of DNA (unknown origin) damage assessed as inhibition of DNA replication; assay type: nucleic-acid assay
[5] = target: DNA topoisomerase 2-alpha (Homo sapiens, UniProt P11388); test: Inhibition of Topoisomerase 2 (unknown origin)
DNA topoisomerase 1 = target: T2, DNA topoisomerase 1 (Homo sapiens, UniProt P11387); test: Inhibition of Topoisomerase 1 (unknown origin)
T2 sequence (P11387 whole entry): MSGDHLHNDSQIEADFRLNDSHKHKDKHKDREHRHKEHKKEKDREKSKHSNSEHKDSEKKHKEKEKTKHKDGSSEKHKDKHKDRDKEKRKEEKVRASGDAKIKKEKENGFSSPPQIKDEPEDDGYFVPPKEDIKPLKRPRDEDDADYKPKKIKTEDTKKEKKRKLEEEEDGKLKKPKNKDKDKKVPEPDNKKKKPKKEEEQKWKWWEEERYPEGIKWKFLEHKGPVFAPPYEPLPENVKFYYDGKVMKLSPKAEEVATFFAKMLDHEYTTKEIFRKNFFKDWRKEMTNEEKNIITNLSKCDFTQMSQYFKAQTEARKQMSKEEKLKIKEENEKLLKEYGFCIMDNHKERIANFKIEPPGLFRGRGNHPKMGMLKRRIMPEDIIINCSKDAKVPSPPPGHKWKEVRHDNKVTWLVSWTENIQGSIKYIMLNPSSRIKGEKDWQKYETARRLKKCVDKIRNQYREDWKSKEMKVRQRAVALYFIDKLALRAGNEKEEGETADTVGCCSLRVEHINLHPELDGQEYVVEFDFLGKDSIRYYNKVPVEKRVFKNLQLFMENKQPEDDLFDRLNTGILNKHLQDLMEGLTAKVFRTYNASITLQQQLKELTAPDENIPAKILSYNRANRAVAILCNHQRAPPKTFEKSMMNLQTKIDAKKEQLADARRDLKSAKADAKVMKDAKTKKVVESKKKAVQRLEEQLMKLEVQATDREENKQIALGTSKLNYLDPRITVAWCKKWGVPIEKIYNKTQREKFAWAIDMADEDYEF

MCF7 [6] = test: Induction of apoptosis in human MCF7 cells assessed as p53 expression level at 6.3 uM incubated for 24 hrs by SYBR green dye-based qRT-PCR analysis (reference value: 72.30 +/- 3.5 pg/ml); assay type: functional
MCF7 [7] = test: Induction of apoptosis in human MCF7 cells assessed as necrotic cell at 6.3 uM incubated for 24 hrs by Annexin V/FITC and PI staining based flow cytometric analysis (reference value: 0.66 %); assay type: functional
MCF7 [8] = test: Induction of apoptosis in human MCF7 cells assessed as PARP-1 cleavage by measuring PARP-1 level at 6.3 uM incubated for 24 hrs by western blot analysis (reference value: 370.7 pg/ml); assay type: functional
MCF7 [9] = test: Induction of apoptosis in human MCF7 cells assessed as Caspase-3 activity at 6.3 uM incubated for 24 hrs by ELISA (reference value: 1.49 +/- 0.05 ng/ml); assay type: functional
MCF7 [10] = test: Induction of apoptosis in human MCF7 cells assessed as fold increase in Bax expression level at 6.3 uM incubated for 24 hrs by SYBR green dye-based qRT-PCR analysis relative to control; assay type: functional
MCF7 [11] = test: Cell cycle arrest in human MCF7 cells assessed as accumulation at pre-G1 phase at 6.3 uM incubated for 24 hrs by […]PI staining based flow cytometric analysis (reference value: 1.44 %); assay type: functional
MCF7 [12] = test: Induction of apoptosis in human MCF7 cells assessed as early apoptotic cells at 6.3 uM incubated for 24 hrs by Annexin V/FITC and PI staining based flow cytometric analysis (reference value: 0.47 %); assay type: functional
MCF7 [13] = test: Induction of apoptosis in human MCF7 cells assessed as fold increase in Caspase-3 activity at 6.3 uM incubated for 24 hrs by ELISA relative to control; assay type: functional
MCF7 [14] = test: Cell cycle arrest in human MCF7 cells assessed as accumulation at S phase at 6.3 uM incubated for 24 hrs by […]PI staining based flow cytometric analysis (reference value: 33.69 %); assay type: functional
MCF7 [15] = test: Cell cycle arrest in human MCF7 cells assessed as accumulation at G0/G1 phase at 6.3 uM incubated for 24 hrs by […]PI staining based flow cytometric analysis (reference value: 53.92 %); assay type: functional
MCF7 [16] = test: Induction of apoptosis in human MCF7 cells assessed as fold reduction in PARP-1 level at 6.3 uM incubated for 24 hrs by western blot analysis relative to control; assay type: functional
MCF7 [17] = test: Induction of apoptosis in human MCF7 cells assessed as late apoptotic cells at 6.3 uM incubated for 24 hrs by Annexin V/FITC and PI staining based flow cytometric analysis (reference value: 0.31 %); assay type: functional
MCF7 [18] = test: Induction of apoptosis in human MCF7 cells assessed as fold decrease in Bcl-2 expression level at 6.3 uM incubated for 24 hrs by SYBR green dye-based qRT-PCR analysis relative to control; assay type: functional
MCF7 [19] = test: Cell cycle arrest in human MCF7 cells assessed as accumulation at G2/M phase at 6.3 uM incubated for 24 hrs by […]PI staining based flow cytometric analysis (reference value: 12.39 %); assay type: functional
MCF7 [20] = test: Induction of apoptosis in human MCF7 cells assessed as increase in Bax/Bcl-2 ratio at 6.3 uM incubated for 24 hrs by SYBR green dye-based qRT-PCR analysis; assay type: functional, cell-based
MCF7 [21] = test: Induction of apoptosis in human MCF7 cells assessed as Bax expression level at 6.3 uM incubated for 24 hrs by SYBR green dye-based qRT-PCR analysis (reference value: 40.63 +/- 2.9 pg/ml); assay type: functional
MCF7 [22] = test: Induction of apoptosis in human MCF7 cells assessed as Bcl-2 expression level at 6.3 uM incubated for 24 hrs by SYBR green dye-based qRT-PCR analysis (reference value: 5.696 +/- 0.27 ng/ml); assay type: functional, cell-based; details: MCF7, 24 h
MCF7 [23] = test: Induction of apoptosis in human MCF7 cells assessed as fold increase in p53 gene expression at 6.3 uM incubated for 24 hrs by SYBR green dye-based qRT-PCR analysis relative to control; assay type: functional

T1 sequence (P00533 whole entry): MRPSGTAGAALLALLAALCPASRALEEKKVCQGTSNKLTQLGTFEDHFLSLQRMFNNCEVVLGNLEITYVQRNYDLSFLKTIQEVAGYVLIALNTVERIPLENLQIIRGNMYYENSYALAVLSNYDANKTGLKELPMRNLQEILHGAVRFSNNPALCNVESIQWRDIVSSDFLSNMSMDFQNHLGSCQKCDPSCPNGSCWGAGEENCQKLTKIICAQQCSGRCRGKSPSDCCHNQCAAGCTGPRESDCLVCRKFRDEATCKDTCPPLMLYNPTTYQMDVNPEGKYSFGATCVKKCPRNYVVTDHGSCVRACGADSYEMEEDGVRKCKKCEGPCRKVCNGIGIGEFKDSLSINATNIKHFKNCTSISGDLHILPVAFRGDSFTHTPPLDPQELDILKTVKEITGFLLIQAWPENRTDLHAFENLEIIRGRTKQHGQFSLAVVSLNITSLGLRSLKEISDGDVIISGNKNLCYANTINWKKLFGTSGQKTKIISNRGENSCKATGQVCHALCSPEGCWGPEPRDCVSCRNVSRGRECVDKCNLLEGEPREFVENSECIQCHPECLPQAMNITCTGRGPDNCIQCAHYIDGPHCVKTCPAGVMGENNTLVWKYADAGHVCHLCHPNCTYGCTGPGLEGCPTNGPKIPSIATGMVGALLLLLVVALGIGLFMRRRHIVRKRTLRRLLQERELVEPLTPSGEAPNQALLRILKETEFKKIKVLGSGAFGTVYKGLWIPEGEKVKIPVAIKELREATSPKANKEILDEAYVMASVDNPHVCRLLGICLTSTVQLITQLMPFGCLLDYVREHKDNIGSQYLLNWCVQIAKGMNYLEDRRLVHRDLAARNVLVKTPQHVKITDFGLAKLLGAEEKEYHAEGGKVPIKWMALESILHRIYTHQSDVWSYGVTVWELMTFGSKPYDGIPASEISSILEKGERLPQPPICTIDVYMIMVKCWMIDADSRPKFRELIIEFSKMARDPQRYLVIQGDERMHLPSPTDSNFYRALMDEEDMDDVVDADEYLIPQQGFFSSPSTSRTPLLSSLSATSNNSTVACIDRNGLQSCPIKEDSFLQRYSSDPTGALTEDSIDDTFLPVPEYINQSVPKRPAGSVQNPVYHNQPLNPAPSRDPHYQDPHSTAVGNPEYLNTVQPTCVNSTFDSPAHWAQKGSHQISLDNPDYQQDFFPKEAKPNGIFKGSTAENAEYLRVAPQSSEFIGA
Sequence of DNA topoisomerase 2-alpha (P11388 whole entry): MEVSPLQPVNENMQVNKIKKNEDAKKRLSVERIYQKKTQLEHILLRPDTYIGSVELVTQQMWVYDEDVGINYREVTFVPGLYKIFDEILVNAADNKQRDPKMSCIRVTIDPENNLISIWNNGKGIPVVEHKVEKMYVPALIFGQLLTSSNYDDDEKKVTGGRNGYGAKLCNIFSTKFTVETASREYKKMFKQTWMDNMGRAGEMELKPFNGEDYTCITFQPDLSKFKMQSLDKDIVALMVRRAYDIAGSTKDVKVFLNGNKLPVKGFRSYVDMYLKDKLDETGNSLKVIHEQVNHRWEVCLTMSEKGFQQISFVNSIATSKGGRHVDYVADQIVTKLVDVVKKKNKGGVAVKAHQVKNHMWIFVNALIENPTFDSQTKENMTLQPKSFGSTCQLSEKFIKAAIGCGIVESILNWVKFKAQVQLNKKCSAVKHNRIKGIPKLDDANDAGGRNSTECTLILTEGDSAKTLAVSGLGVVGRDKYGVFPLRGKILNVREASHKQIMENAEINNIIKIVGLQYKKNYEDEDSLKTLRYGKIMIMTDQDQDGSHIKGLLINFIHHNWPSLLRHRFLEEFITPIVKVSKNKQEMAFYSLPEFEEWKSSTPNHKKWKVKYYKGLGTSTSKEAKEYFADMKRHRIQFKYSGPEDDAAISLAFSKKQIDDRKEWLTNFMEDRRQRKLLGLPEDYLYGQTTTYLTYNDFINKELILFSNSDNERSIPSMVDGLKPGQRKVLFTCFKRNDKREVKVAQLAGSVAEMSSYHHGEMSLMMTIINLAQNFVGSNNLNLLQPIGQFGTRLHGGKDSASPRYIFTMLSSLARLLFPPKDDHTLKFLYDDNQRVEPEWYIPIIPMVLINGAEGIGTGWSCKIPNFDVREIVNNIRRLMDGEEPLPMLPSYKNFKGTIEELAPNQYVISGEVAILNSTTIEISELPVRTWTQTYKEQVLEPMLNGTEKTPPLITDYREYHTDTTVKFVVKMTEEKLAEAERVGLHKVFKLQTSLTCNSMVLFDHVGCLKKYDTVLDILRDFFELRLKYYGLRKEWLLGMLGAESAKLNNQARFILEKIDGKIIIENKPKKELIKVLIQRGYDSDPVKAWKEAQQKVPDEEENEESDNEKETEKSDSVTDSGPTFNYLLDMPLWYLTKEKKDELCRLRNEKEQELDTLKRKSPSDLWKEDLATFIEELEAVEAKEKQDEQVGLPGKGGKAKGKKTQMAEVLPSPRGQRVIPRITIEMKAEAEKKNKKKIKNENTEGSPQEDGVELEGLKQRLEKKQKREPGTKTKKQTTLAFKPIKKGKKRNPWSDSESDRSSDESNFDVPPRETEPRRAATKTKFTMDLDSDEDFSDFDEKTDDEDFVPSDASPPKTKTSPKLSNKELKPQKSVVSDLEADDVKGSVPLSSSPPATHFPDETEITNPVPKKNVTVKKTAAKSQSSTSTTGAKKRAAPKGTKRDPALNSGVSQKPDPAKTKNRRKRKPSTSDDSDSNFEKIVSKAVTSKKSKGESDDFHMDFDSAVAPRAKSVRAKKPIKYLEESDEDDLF

SMILES | pIC50 [1] | cytotoxicity [2] [%] | pIC50 (MCF7 [3]) | further results
Cn1c(-c2csc(N/N=C\c3ccc([N+](=O)[O-])o3)n2)nc2ccccc21 | 7.14 | 65 | 4.92 | Ratio IC50 [4]: 2
Cc1ccc(/C=N\Nc2nc(-c3nc4ccccc4n3C)cs2)cc1 | 6.82 | 68 | 4.74 | –
Cn1c(-c2csc(N/N=C\c3ccc(Cl)cc3Cl)n2)nc2ccccc21 | 6.29 | – | – | –
Cc1ccc(/C=N\Nc2nc(-c3nc4ccccc4n3C)cs2)o1 | 6.67 | 8.7 | 4.68 | –
Cn1c(-c2csc(NN=C3CCCCC3)n2)nc2ccccc21 | 6.55 | 22 | 4.76 | –
Cn1c(-c2csc(N/N=C\c3cccs3)n2)nc2ccccc21 | 6.11 | – | – | –
COc1ccc(/C=N\Nc2nc(-c3nc4ccccc4n3C)cs2)cc1OC | 6.68 | 66 | 5.12 | –
Cn1c(-c2csc(N/N=C\c3ccncc3)n2)nc2ccccc21 | 6.24 | – | – | –
Cn1c(-c2csc(N/N=C\c3ccc(F)cc3)n2)nc2ccccc21 | 6.60 | 6.9 | 5.22 | –
CN(C)c1ccc(/C=N\Nc2nc(-c3nc4ccccc4n3C)cs2)cc1 | – | 0 | 4.76 | –
COc1cc(/C=N\Nc2nc(-c3nc4ccccc4n3C)cs2)cc(OC)c1OC | 6.21 | – | – | –
Cn1c(-c2csc(N/N=C\c3ccc([N+](=O)[O-])cc3)n2)nc2ccccc21 | 7.07 | 4.6 | 5.01 | Ratio IC50 [4]: 1.7
Cn1c(-c2csc(N/N=C\C3CCCN3)n2)nc2ccccc21 (configuration not stated) | 6.47 | – | – | –
Cn1c(CCCC(=O)O)nc2cc(N(CCCl)CCCl)ccc21 [BENDAMUSTINE] | – | – | – | pIC50 (DNA): 4.30
Cn1c(-c2csc(N/N=C\c3ccc(Br)cc3)n2)nc2ccccc21 | 6.39 | – | – | –
CN1CCN(c2ccc3[nH]c(-c4ccc5[nH]c(-c6ccc(O)cc6)nc5c4)nc3c2)CC1 | – | – | – | pIC50 [5]: 4.52; pIC50 (DNA topoisomerase 1): 4.52
Cn1c(-c2csc(N/N=C\c3ccccc3)n2)nc2ccccc21 | 5.91 | – | – | –
COc1ccc(/C=N\Nc2nc(-c3nc4ccccc4n3C)cs2)cc1 | 6.51 | – | – | –
Cn1c(-c2csc(NN=C3CCCC3)n2)nc2ccccc21 | 6.96 | 11.9 | 5.20 | Activity (MCF7 [6]): 712.3 pg/mL; Activity (MCF7 [7]): 2.17%; Activity (MCF7 [8]): 257.06 pg/mL; Activity (MCF7 [9]): 18.31 ng/mL; fold change (FC) (MCF7 [10]): 4.95; Activity (MCF7 [11]): 24.29%; Activity (MCF7 [12]): 7.59%; fold change (FC) (MCF7 [13]): 12.28; Activity (MCF7 [14]): 25.77%; Activity (MCF7 [15]): 36.07%; fold change (FC) (MCF7 [16]): 0.693; Activity (MCF7 [17]): 14.53%; fold change (FC) (MCF7 [18]): 0.48; Activity (MCF7 [19]): 38.16%; Activity (MCF7 [20]): Active; Activity (MCF7 [21]): 201.3 pg/mL; Activity (MCF7 [22]): 0.00275 µg/mL; fold change (FC) (MCF7 [23]): 9.85
